From patent publication US20060052458A1, “Preventive or remedy for intrauterine late embryonic development or pregnancy toxemia” (KISSEI PHARMACEUTICAL CO., LTD., priority 2003, published 2006)
Marks after values point to notes of the source that are not given here.

Columns and labels:
[1] = tested on: rat L-NAME-induced gestational toxicosis model; test: Confirmation of effects on gestational toxicosis (Test Example 2); type: in vivo
Source text: A gestational toxicosis model was created as follows. A 17th -gestation day rat was anesthetized with ether. Then, the poll was incised approximately 10 mm to transplant in control group an osmotic pressure pump filled with L-NAME, and in the normal group, in the similar manner, an osmotic pressure pump filled with physiological saline in place of L-NAME. To the test group, in addition to the above pump, an osmotic pressure pump filled with bis(2-{[(2S)-2-({(2R)-2-hydroxy-2-[4-hydroxy-3-(2-hydroxyethyl)phenyl]ethyl}amino)-1,2,3,4-tetrahydronaphthalene-7-yl]oxy}-N,N-dimethylacetamide) monosulfate (the compound represented by the above formula (Ia)) was implanted. On the 20th gestation day, the mother animal was anesthetized with ether, and the fetus was extirpated. Severity of static gangrene at the tip of fetal extremities was examined, and the amount of maternal urinary albumin and plasma triglyceride level were measured.
While bis(2-{[(2S)-2-({(2R)-2-hydroxy-2-[4-hydroxy-3-(2-hydroxyethyl)phenyl]ethyl)amino)-1,2,3,4-tetrahydronaphthalene-7-yl]oxy)-N,N-dimethylacetamide) monosulfate was dissolved in physiological saline and an osmotic pressure pump with the dose of 200 μg/day was inserted, L-NAME was dissolved in physiological saline to make 200 mg/mL for filling and an osmotic pressure pump with the dose of 48 mg/day was inserted.

[2] = tested on: rat intrauterine growth retardation model induced by L-NAME; test: Confirmation of effects on IUGR (Test Example 1); type: in vivo
Source text: IUGR model was created as follows in accordance with the method by Yallampalli et al. (Am J Obstet Gynecol, vol. 169: 1316-1320, 1993). A 17th-gestation day rat was anesthetized with ether. Then, the poll was incised approximately 10 mm to transplant in control group an osmotic pressure pump filled with L-NAME, and in the normal group, in the similar manner, an osmotic pressure pump filled with physiological saline in place of L-NAME. To the test group, in addition to the above pump, an osmotic pressure pump filled with bis(2-{[(2S)-2-({(2R)-2-hydroxy-2-[4-hydroxy-3-(2-hydroxyethyl)phenyl]ethyl}amino)-1,2,3,4-tetrahydronaphthalene-7-yl]oxy)-N,N-dimethylacetamide) monosulfate (the compound of the above formula (Ia)) was implanted. On the 20th gestation day, the mother animal was anesthetized with ether, and the fetus was extirpated and weighed. Maternal blood pressure was measured before ether anesthesia on the 17th and 20th gestation days. In statistical analysis, comparisons of control group with normal group or test group were conducted in F-test for variance. When there was equal variance, unpaired t-tests were performed. When there was unequal variance, Welch's test was performed.
Bis(2-{[(2S)-2-({(2R)-2-hydroxy-2-[4-hydroxy-3-(2-hydroxyethyl)phenyl]ethyl}amino)-1,2,3,4-tetrahydronaphthalene-7-yl]oxy}-N,N-dimethylacetamide) sulfate was dissolved in physiological saline and an osmotic pressure pump with the dose of 50 μg/day was inserted, while L-NAME was dissolved in physiological saline to make 50 mg/mL for filling and an osmotic pressure pump with the dose of 12 mg/day was inserted.

[3] = L-NAME 48 mg/day + compound 200 μg/day by osmotic pump from gestation day 17, examined on day 20
[4] = L-NAME 48 mg/day + compound 200 μg/day by osmotic pump, gestation day 20

## CN(C)C(=O)COc1ccc2c(c1)C[C@@H](NC[C@H](O)c1ccc(O)c(CCO)c1)CC2 [formula (Ia), bis(2-{[(2S)-2-({(2R)-2-hydroxy-2-[4-hydroxy-3-(2-hydroxyethyl)phenyl]ethyl}amino)-1,2,3,4-tetrahydronaphthalene-7-yl]oxy}-N,N-dimethylacetamide) monosulfate]
[1]; [3]
  Static gangrene in the tip of extremities (incidence %): 8%
  The number of static gangrene in the tip of extremities/The number of fetuses: 16/203
[1]; [4]
  Maternal plasma triglyceride level: 143 µg/mL
  Maternal urinary albumin level: 222.1# μg/mL
[2]; 50 μg/day by osmotic pump, gestation days 17 to 20
  Change in maternal blood pressure after administration (effect on maternal heart): no change in maternal blood pressure
[2]; Day 20 of gestation, L-NAME 12 mg/day + compound 50 μg/day by osmotic pump
  Mean blood pressure of dam: 102.5 mmHg
[2]; pregnant rat, L-NAME 12 mg/day + compound 50 μg/day by osmotic pump from gestation day 17, fetus weighed on day 20
  Fetal body weight: 3550 mg
